Results from the supplement of paper PMC10307832.

Experiments:
Assay in all cases: relative viability (nuclei count vs DMSO), 5 days (fraction); higher = more cells survive
[1] = tested on: NCI-H1666
Method in brief: (§1)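 Cells from lung cancer lines were seeded into 1536-well plates and, one day later, dosed by pin tool. Treatments were either a single drug or a fixed dose of an anchor drug with five library-drug doses (not always all listed) in √10 steps. After 5 days, nuclei were stained in a one-step fixation (final 0.05% Triton X-100, 1% formaldehyde, 1 ug/ml Hoechst) and counted on 4× images, and relative viability is the treated-to-vehicle nuclei ratio, as the median of duplicate plates.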

[2] = tested on: NCI-H1915
Method in brief: as §1

[3] = tested on: NCI-H460
Method in brief: as §1

[4] = tested on: UMC-11
Method in brief: as §1

[5] = tested on: LC-2-ad
Method in brief: as §1

[6] = tested on: HCC-78
Method in brief: as §1

[7] = tested on: NCI-H2170
Method in brief: as §1

[8] = tested on: NCI-H1792
Method in brief: as §1

[9] = tested on: NCI-H358
Method in brief: as §1

[10] = tested on: NCI-H2085
Method in brief: as §1

[11] = tested on: HOP-62
Method in brief: as §1

[12] = tested on: LU99A
Method in brief: as §1

[13] = tested on: A-427
Method in brief: as §1

[14] = tested on: NCI-H1793
Method in brief: as §1

[15] = tested on: EPLC-272H
Method in brief: as §1

[16] = tested on: COR-L 105
Method in brief: as §1

[17] = tested on: NCI-H1944
Method in brief: as §1

[18] = tested on: NCI-H2009
Method in brief: as §1

[19] = tested on: LXF-289
Method in brief: as §1

[20] = tested on: SK-LU-1
Method in brief: as §1

[21] = tested on: HCC-366
Method in brief: as §1

Compound: O=c1cc(N2CCOCC2)oc2c(-c3cccc4c3sc3ccccc34)cccc12 + CS(=O)(=O)CCNCc1ccc(-c2ccc3ncnc(Nc4ccc(OCc5cccc(F)c5)c(Cl)c4)c3c2)o1 [Lapatinib] (partner 2 µM)
- relative viability ([1]; first compound 0.01 µM): 0.555
- relative viability ([1]; first compound 0.03162 µM): 0.735
- relative viability ([1]; first compound 0.1 µM): 0.715
- relative viability ([1]; first compound 0.3162 µM): 0.614
- relative viability ([1]; first compound 1 µM): 0.591
- relative viability ([2]; first compound 0.01 µM): 1.05
- relative viability ([2]; first compound 0.03162 µM): 1.05
- relative viability ([2]; first compound 0.1 µM): 0.957
- relative viability ([2]; first compound 0.3162 µM): 0.977
- relative viability ([2]; first compound 1 µM): 1.05
- relative viability ([3]; first compound 0.01 µM): 0.926
- relative viability ([3]; first compound 0.03162 µM): 1.07
- relative viability ([3]; first compound 0.1 µM): 1.09
- relative viability ([3]; first compound 0.3162 µM): 0.807
- relative viability ([3]; first compound 1 µM): 1.11
- relative viability ([4]; first compound 0.01 µM): 0.997
- relative viability ([4]; first compound 0.03162 µM): 1.03
- relative viability ([4]; first compound 0.1 µM): 1.17
- relative viability ([4]; first compound 0.3162 µM): 0.995
- relative viability ([4]; first compound 1 µM): 0.951
- relative viability ([5]; first compound 0.01 µM): 1.06
- relative viability ([5]; first compound 0.1 µM): 1.03
- relative viability ([5]; first compound 0.3162 µM): 0.898
- relative viability ([5]; first compound 1 µM): 1.02
- relative viability ([6]; first compound 0.01 µM): 1.03
- relative viability ([6]; first compound 0.03162 µM): 0.856
- relative viability ([6]; first compound 0.1 µM): 0.785
- relative viability ([6]; first compound 0.3162 µM): 0.785
- relative viability ([6]; first compound 1 µM): 0.652
- relative viability ([7]; first compound 0.01 µM): 0.241
- relative viability ([7]; first compound 0.03162 µM): 0.25
- relative viability ([7]; first compound 0.1 µM): 0.253
- relative viability ([7]; first compound 0.3162 µM): 0.285
- relative viability ([7]; first compound 1 µM): 0.274
- relative viability ([8]; first compound 0.01 µM): 0.884
- relative viability ([8]; first compound 0.03162 µM): 0.896
- relative viability ([8]; first compound 0.1 µM): 0.808
- relative viability ([8]; first compound 0.3162 µM): 0.874
- relative viability ([8]; first compound 1 µM): 0.828
- relative viability ([9]; first compound 0.01 µM): 0.515
- relative viability ([9]; first compound 0.03162 µM): 0.478
- relative viability ([9]; first compound 0.1 µM): 0.482
- relative viability ([9]; first compound 0.3162 µM): 0.467
- relative viability ([9]; first compound 1 µM): 0.433
- relative viability ([10]; first compound 0.01 µM): 0.796
- relative viability ([10]; first compound 0.03162 µM): 0.757
- relative viability ([10]; first compound 0.1 µM): 0.775
- relative viability ([10]; first compound 0.3162 µM): 0.734
- relative viability ([10]; first compound 1 µM): 0.751
- relative viability ([11]; first compound 0.01 µM): 0.996
- relative viability ([11]; first compound 0.03162 µM): 0.856
- relative viability ([11]; first compound 0.1 µM): 0.821
- relative viability ([11]; first compound 0.3162 µM): 0.958
- relative viability ([11]; first compound 1 µM): 1.17
- relative viability ([12]; first compound 0.01 µM): 1.11
- relative viability ([12]; first compound 0.03162 µM): 1.04
- relative viability ([12]; first compound 0.1 µM): 0.921
- relative viability ([12]; first compound 0.3162 µM): 1.02
- relative viability ([12]; first compound 1 µM): 1.07
- relative viability ([13]; first compound 0.01 µM): 1.12
- relative viability ([13]; first compound 0.03162 µM): 1.01
- relative viability ([13]; first compound 0.1 µM): 0.982
- relative viability ([13]; first compound 0.3162 µM): 1.01
- relative viability ([13]; first compound 1 µM): 1.05
- relative viability ([14]; first compound 0.01 µM): 0.707
- relative viability ([14]; first compound 0.03162 µM): 0.824
- relative viability ([14]; first compound 0.1 µM): 0.656
- relative viability ([14]; first compound 0.3162 µM): 0.499
- relative viability ([14]; first compound 1 µM): 0.45
- relative viability ([15]; first compound 0.01 µM): 1.15
- relative viability ([15]; first compound 0.03162 µM): 1.12
- relative viability ([15]; first compound 0.3162 µM): 0.928
- relative viability ([15]; first compound 1 µM): 0.825
- relative viability ([16]; first compound 0.01 µM): 0.384
- relative viability ([16]; first compound 0.03162 µM): 0.327
- relative viability ([16]; first compound 0.1 µM): 0.397
- relative viability ([16]; first compound 0.3162 µM): 0.379
- relative viability ([16]; first compound 1 µM): 0.412
- relative viability ([17]; first compound 0.01 µM): 0.842
- relative viability ([17]; first compound 0.03162 µM): 0.817
- relative viability ([17]; first compound 0.1 µM): 1.04
- relative viability ([17]; first compound 0.3162 µM): 1.01
- relative viability ([17]; first compound 1 µM): 0.775
- relative viability ([18]; first compound 0.01 µM): 0.906
- relative viability ([18]; first compound 0.03162 µM): 0.915
- relative viability ([18]; first compound 0.1 µM): 0.895
- relative viability ([18]; first compound 0.3162 µM): 0.94
- relative viability ([18]; first compound 1 µM): 1.15
- relative viability ([19]; first compound 0.01 µM): 0.872
- relative viability ([19]; first compound 0.03162 µM): 0.881
- relative viability ([19]; first compound 0.1 µM): 0.89
- relative viability ([19]; first compound 0.3162 µM): 0.897
- relative viability ([19]; first compound 1 µM): 0.946
- relative viability ([20]; first compound 0.01 µM): 0.808
- relative viability ([20]; first compound 0.03162 µM): 0.815
- relative viability ([20]; first compound 0.1 µM): 0.671
- relative viability ([20]; first compound 0.3162 µM): 0.82
- relative viability ([20]; first compound 1 µM): 0.816
- relative viability ([21]; first compound 0.01 µM): 0.968
- relative viability ([21]; first compound 0.03162 µM): 1.06
- relative viability ([21]; first compound 0.1 µM): 1.04
- relative viability ([21]; first compound 0.3162 µM): 1.04
- relative viability ([21]; first compound 1 µM): 1.04
